Source: ChEMBL document CHEMBL1156337, “Synthesis and evaluation of novel benzothiazole derivatives based on the bithiophene structure as potential radiotracers for beta-amyloid plaques in Alzheimer's disease” (Bioorg Med Chem, 2010)
pKi: −log10 of the molar value. Each block holds one molecule with its values, some of them ahead of it. Active and inactive are the calls of the source. No cut-off for these calls is given here.

Experiments:
Muscle tissue [1] = assay: Biodistribution in muscle of Kunming mouse at 1 uCi, iv after 60 mins by gamma counting; type: ADME, organism-based; details: in vivo, 1 h
Muscle tissue [2] = assay: Biodistribution in muscle of Kunming mouse at 1 uCi, iv after 120 mins by gamma counting; type: ADME, organism-based; details: in vivo, 2 h
Muscle tissue [3] = assay: Biodistribution in muscle of Kunming mouse at 1 uCi, iv after 240 mins by gamma counting; type: ADME, organism-based; details: in vivo, 4 h
[4] = Partition coefficient, log D in n-octanol/0.05 M phosphate buffer at pH 7.4; type: physicochemical
Plasma = assay: Metabolic stability in mouse plasma assessed as deiodination after 2 hrs by HPLC analysis; type: ADME, cell-free
Blood [5] = assay: Biodistribution in blood of Kunming mouse at 1 uCi, iv after 30 mins by gamma counting; type: ADME, organism-based; details: in vivo, 0.5 h
Blood [6] = assay: Biodistribution in blood of Kunming mouse at 1 uCi, iv after 2 mins by gamma counting; type: ADME, organism-based; details: in vivo
Blood [7] = assay: Biodistribution in blood of Kunming mouse at 1 uCi, iv after 60 mins by gamma counting; type: ADME, organism-based; details: in vivo, 1 h
Blood [8] = assay: Biodistribution in blood of Kunming mouse at 1 uCi, iv after 120 mins by gamma counting; type: ADME, organism-based; details: in vivo, 2 h
Blood [9] = assay: Biodistribution in blood of Kunming mouse at 1 uCi, iv after 240 mins by gamma counting; type: ADME, organism-based; details: in vivo, 4 h
Brain [10] = assay: Biodistribution in brain of Kunming mouse at 1 uCi, iv after 2 mins by gamma counting; type: ADME, organism-based; details: in vivo
Brain [11] = assay: Biodistribution in brain of Kunming mouse at 1 uCi, iv after 30 mins by gamma counting; type: ADME, organism-based; details: in vivo, 0.5 h
Brain [12] = assay: Biodistribution in brain of Kunming mouse at 1 uCi, iv after 60 mins by gamma counting; type: ADME, organism-based; details: in vivo, 1 h
Brain [13] = assay: Biodistribution in brain of Kunming mouse at 1 uCi, iv after 120 mins by gamma counting; type: ADME, organism-based; details: in vivo, 2 h
Brain [14] = assay: Biodistribution in brain of Kunming mouse at 1 uCi, iv after 240 mins by gamma counting; type: ADME, organism-based; details: in vivo, 4 h
Heart [15] = assay: Biodistribution in heart of Kunming mouse at 1 uCi, iv after 2 mins by gamma counting; type: ADME, organism-based; details: in vivo
Heart [16] = assay: Biodistribution in heart of Kunming mouse at 1 uCi, iv after 30 mins by gamma counting; type: ADME, organism-based; details: in vivo, 0.5 h
Heart [17] = assay: Biodistribution in heart of Kunming mouse at 1 uCi, iv after 60 mins by gamma counting; type: ADME, organism-based; details: in vivo, 1 h
Heart [18] = assay: Biodistribution in heart of Kunming mouse at 1 uCi, iv after 120 mins by gamma counting; type: ADME, organism-based; details: in vivo, 2 h
Heart [19] = assay: Biodistribution in heart of Kunming mouse at 1 uCi, iv after 240 mins by gamma counting; type: ADME, organism-based; details: in vivo, 4 h
Liver [20] = assay: Biodistribution in liver of Kunming mouse at 1 uCi, iv after 2 mins by gamma counting; type: ADME, organism-based; details: in vivo
Liver [21] = assay: Biodistribution in liver of Kunming mouse at 1 uCi, iv after 30 mins by gamma counting; type: ADME, organism-based; details: in vivo, 0.5 h
Liver [22] = assay: Biodistribution in liver of Kunming mouse at 1 uCi, iv after 60 mins by gamma counting; type: ADME, organism-based; details: in vivo, 1 h
Liver [23] = assay: Biodistribution in liver of Kunming mouse at 1 uCi, iv after 120 mins by gamma counting; type: ADME, organism-based; details: in vivo, 2 h
Liver [24] = assay: Biodistribution in liver of Kunming mouse at 1 uCi, iv after 240 mins by gamma counting; type: ADME, organism-based; details: in vivo, 4 h
Spleen [25] = assay: Biodistribution in spleen of Kunming mouse at 1 uCi, iv after 2 mins by gamma counting; type: ADME, organism-based; details: in vivo
Spleen [26] = assay: Biodistribution in spleen of Kunming mouse at 1 uCi, iv after 30 mins by gamma counting; type: ADME, organism-based; details: in vivo, 0.5 h
Spleen [27] = assay: Biodistribution in spleen of Kunming mouse at 1 uCi, iv after 60 mins by gamma counting; type: ADME, organism-based; details: in vivo, 1 h
Spleen [28] = assay: Biodistribution in spleen of Kunming mouse at 1 uCi, iv after 120 mins by gamma counting; type: ADME, organism-based; details: in vivo, 2 h
Spleen [29] = assay: Biodistribution in spleen of Kunming mouse at 1 uCi, iv after 240 mins by gamma counting; type: ADME, organism-based; details: in vivo, 4 h
Lung [30] = assay: Biodistribution in lung of Kunming mouse at 1 uCi, iv after 2 mins by gamma counting; type: ADME, organism-based; details: in vivo
Lung [31] = assay: Biodistribution in lung of Kunming mouse at 1 uCi, iv after 30 mins by gamma counting; type: ADME, organism-based; details: in vivo, 0.5 h
Lung [32] = assay: Biodistribution in lung of Kunming mouse at 1 uCi, iv after 60 mins by gamma counting; type: ADME, organism-based; details: in vivo, 1 h
Lung [33] = assay: Biodistribution in lung of Kunming mouse at 1 uCi, iv after 120 mins by gamma counting; type: ADME, organism-based; details: in vivo, 2 h
Lung [34] = assay: Biodistribution in lung of Kunming mouse at 1 uCi, iv after 240 mins by gamma counting; type: ADME, organism-based; details: in vivo, 4 h
Kidney [35] = assay: Biodistribution in kidney of Kunming mouse at 1 uCi, iv after 2 mins by gamma counting; type: ADME, organism-based; details: in vivo
Kidney [36] = assay: Biodistribution in kidney of Kunming mouse at 1 uCi, iv after 30 mins by gamma counting; type: ADME, organism-based; details: in vivo, 0.5 h
Kidney [37] = assay: Biodistribution in kidney of Kunming mouse at 1 uCi, iv after 60 mins by gamma counting; type: ADME, organism-based; details: in vivo, 1 h
Kidney [38] = assay: Biodistribution in kidney of Kunming mouse at 1 uCi, iv after 120 mins by gamma counting; type: ADME, organism-based; details: in vivo, 2 h
Kidney [39] = assay: Biodistribution in kidney of Kunming mouse at 1 uCi, iv after 240 mins by gamma counting; type: ADME, organism-based; details: in vivo, 4 h
Stomach [40] = assay: Biodistribution in stomach of Kunming mouse at 1 uCi, iv after 2 mins by gamma counting measured per organ; type: ADME, organism-based; details: in vivo
Stomach [41] = assay: Biodistribution in stomach of Kunming mouse at 1 uCi, iv after 30 mins by gamma counting measured per organ; type: ADME, organism-based; details: in vivo, 0.5 h
Stomach [42] = assay: Biodistribution in stomach of Kunming mouse at 1 uCi, iv after 60 mins by gamma counting measured per organ; type: ADME, organism-based; details: in vivo, 1 h
Stomach [43] = assay: Biodistribution in stomach of Kunming mouse at 1 uCi, iv after 120 mins by gamma counting measured per organ; type: ADME, organism-based; details: in vivo, 2 h
Stomach [44] = assay: Biodistribution in stomach of Kunming mouse at 1 uCi, iv after 240 mins by gamma counting measured per organ; type: ADME, organism-based; details: in vivo, 4 h
Muscle tissue [45] = assay: Biodistribution in muscle of Kunming mouse at 1 uCi, iv after 2 mins by gamma counting; type: ADME, organism-based; details: in vivo
Muscle tissue [46] = assay: Biodistribution in muscle of Kunming mouse at 1 uCi, iv after 30 mins by gamma counting; type: ADME, organism-based; details: in vivo, 0.5 h
Mus musculus [47] = species: Mus musculus; assay: Binding affinity to beta amyloid plaques in brain sections of TgC57 transgenic mouse transfected with APP and PS1 double mutant after 10 mins using thioflavin-S stain; type: tissue-based
Mus musculus [48] = species: Mus musculus; assay: Binding affinity to beta amyloid plaques in brain sections of TgC57 transgenic mouse transfected with APP and PS1 double mutant after 30 mins by autoradiography; type: tissue-based; details: tested as the 125I-labelled form
Mus musculus [49] = species: Mus musculus; assay: Binding affinity to beta amyloid plaques in brain sections of TgC57 transgenic mouse transfected with APP and PS1 double mutant after 30 mins by autoradiography in the presence of thioflavin-T; type: tissue-based; details: tested as the 125I-labelled form
[50] = Displacement of [125I]TZDM from amyloid beta (1 to 40) aggregates after 2 hrs
[51] = Displacement of [125I]TZDM from amyloid beta (1 to 42) aggregates after 2 hrs
[52] = Binding affinity to amyloid beta aggregates

Compound: COc1ccc2nc(-c3ccc(-c4ccc([125I])s4)s3)sc2c1
- Drug uptake (Muscle tissue [1]): 3.56 % ID/g
- Drug uptake (Muscle tissue [2]): 2.46 % ID/g
- Drug uptake (Muscle tissue [3]): 1.95 % ID/g
- logD [4]: 3.27
- Stability (Plasma): Stable
- Drug uptake (Blood [5]): 6.55 % ID/g
- Drug uptake (Blood [6]): 23.34 % ID/g
- Drug uptake (Blood [7]): 6.58 % ID/g
- Drug uptake (Blood [8]): 6.62 % ID/g
- Drug uptake (Blood [9]): 5.05 % ID/g
- Drug uptake (Brain [10]): 0.87 % ID/g
- Drug uptake (Brain [11]): 0.64 % ID/g
- Drug uptake (Brain [12]): 0.77 % ID/g
- Drug uptake (Brain [13]): 0.68 % ID/g
- Drug uptake (Brain [14]): 0.53 % ID/g
- Drug uptake (Heart [15]): 16.13 % ID/g
- Drug uptake (Heart [16]): 5.94 % ID/g
- Drug uptake (Heart [17]): 4.74 % ID/g
- Drug uptake (Heart [18]): 3.48 % ID/g
- Drug uptake (Heart [19]): 2.5 % ID/g
- Drug uptake (Liver [20]): 35.25 % ID/g
- Drug uptake (Liver [21]): 6.98 % ID/g
- Drug uptake (Liver [22]): 5.76 % ID/g
- Drug uptake (Liver [23]): 4.33 % ID/g
- Drug uptake (Liver [24]): 3.23 % ID/g
- Drug uptake (Spleen [25]): 19.04 % ID/g
- Drug uptake (Spleen [26]): 7.11 % ID/g
- Drug uptake (Spleen [27]): 6.24 % ID/g
- Drug uptake (Spleen [28]): 4.92 % ID/g
- Drug uptake (Spleen [29]): 4.49 % ID/g
- Drug uptake (Lung [30]): 43.6 % ID/g
- Drug uptake (Lung [31]): 10.28 % ID/g
- Drug uptake (Lung [32]): 8.64 % ID/g
- Drug uptake (Lung [33]): 7.7 % ID/g
- Drug uptake (Lung [34]): 6.12 % ID/g
- Drug uptake (Kidney [35]): 14.3 % ID/g
- Drug uptake (Kidney [36]): 6.49 % ID/g
- Drug uptake (Kidney [37]): 6.28 % ID/g
- Drug uptake (Kidney [38]): 5.67 % ID/g
- Drug uptake (Kidney [39]): 4.53 % ID/g
- Drug uptake (Stomach [40]): 1.31 %ID
- Drug uptake (Stomach [41]): 15.84 %ID
- Drug uptake (Stomach [42]): 20.24 %ID
- Drug uptake (Stomach [43]): 33.95 %ID
- Drug uptake (Stomach [44]): 19.37 %ID
- Drug uptake (Muscle tissue [45]): 2.73 % ID/g
- Drug uptake (Muscle tissue [46]): 3.42 % ID/g

Compound: COc1ccc2nc(-c3ccc(-c4cccs4)s3)sc2c1
- Activity (Mus musculus [47]): Active
- pKi [50]: 9.22
- pKi [51]: 8.68

Compound: CN(C)c1ccc(-c2nc3ccc(I)cc3s2)cc1
- pKi [50]: 8.66
- pKi [51]: 9.05

Compound: N#CC(C#N)=Cc1ccc(-c2ccc(-c3ccc(O)cc3)s2)s1
- pKi [52]: 8.00

Now from value to molecule:

- Activity (Mus musculus [47]): Active
- Activity (Mus musculus [48]): Active
- Activity (Mus musculus [49]): inactive
- pKi [50]: 9.51
- pKi [51]: 9.60
Compound: Ic1ccc2nc(-c3ccc(-c4cccs4)s3)sc2c1

- Activity (Mus musculus [47]): Active
- pKi [50]: 9.24
- pKi [51]: 9.22
Compound: Brc1ccc2nc(-c3ccc(-c4cccs4)s3)sc2c1
